Assay results: PubChem BioAssay AID2060498 (Molecular Pharmacology Branch, DTP, NCI, 2025)
pIC50: −log10 of the molar value.

Test system: 171881-019-R-J1-PDC tumor spheroids, viability
Assay: Anticancer human tumor 171881-019-R-J1-PDC patient-derived invasive breast carcinoma cell line growth inhibition [GQUAD]
Details: spheroids with HUVEC and MSC; for pIC50: curve of first compound; for viability, T/C: stronger effect = lower value
Procedure, shortened: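 Multi-cell-type spheroids of tumor cells with HUVEC and mesenchymal stem cells, treated with drug combinations. Concentrations descend in half-log steps from near clinical Cmax, or from 10 microM where Cmax is unknown; viability read-out.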

[1] = second compound 0.0316 µM, first compound 0.0316 µM
[2] = second compound 0.0316 µM, first compound 0.1 µM
[3] = second compound 0.0316 µM, first compound 0.316 µM
[4] = second compound 0.0316 µM, first compound 1 µM
[5] = second compound 0.0316 µM, first compound 3.16 µM
[6] = second compound 0.0316 µM, first compound 10 µM
[7] = second compound 0.1 µM, first compound 0.0316 µM
[8] = second compound 0.1 µM, first compound 0.1 µM
[9] = second compound 0.1 µM, first compound 0.316 µM
[10] = second compound 0.1 µM, first compound 1 µM
[11] = second compound 0.1 µM, first compound 3.16 µM
[12] = second compound 0.1 µM, first compound 10 µM
[13] = second compound 0.316 µM, first compound 0.0316 µM
[14] = second compound 0.316 µM, first compound 0.1 µM
[15] = second compound 0.316 µM, first compound 0.316 µM
[16] = second compound 0.316 µM, first compound 1 µM
[17] = second compound 0.316 µM, first compound 3.16 µM
[18] = second compound 0.316 µM, first compound 10 µM
[19] = second compound 1 µM, first compound 0.0316 µM
[20] = second compound 1 µM, first compound 0.1 µM
[21] = second compound 1 µM, first compound 0.316 µM
[22] = second compound 1 µM, first compound 1 µM
[23] = second compound 1 µM, first compound 3.16 µM
[24] = second compound 1 µM, first compound 10 µM
[25] = second compound 3.16 µM, first compound 0.0316 µM
[26] = second compound 3.16 µM, first compound 0.1 µM
[27] = second compound 3.16 µM, first compound 0.316 µM
[28] = second compound 3.16 µM, first compound 1 µM
[29] = second compound 3.16 µM, first compound 3.16 µM
[30] = second compound 3.16 µM, first compound 10 µM
[31] = second compound 10 µM, first compound 0.0316 µM
[32] = second compound 10 µM, first compound 0.1 µM
[33] = second compound 10 µM, first compound 0.316 µM
[34] = second compound 10 µM, first compound 1 µM
[35] = second compound 10 µM, first compound 3.16 µM
[36] = second compound 10 µM, first compound 10 µM
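Also: spheroids exposed to compounds for 7 days.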
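For viability, T/C in this document: 100% = DMSO vehicle control viability.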

With `Cc1cccc(N(C)C(=O)C2C(O)CCN2c2nc(C)cc(C(F)(F)F)c2C#N)c1` (stereo unspecified) + Cc1cnc(CNC(=O)c2c(=O)c3ccc(N4CCCN(C)CC4)nc3n3c2sc2ccccc23)cn1 the pIC50 (second compound 0.0316 µM) was < 5.00, the pIC50 (second compound 0.1 µM) was < 5.00 and the pIC50 (second compound 0.316 µM) was < 5.00. For the same compound, the pIC50 (second compound 1 µM) was < 5.00, the pIC50 (second compound 3.16 µM) was < 5.00 and the pIC50 (second compound 10 µM) was < 5.00. For the same compound, the viability, T/C [1] was 105%, the viability, T/C [2] was 87.2% and the viability, T/C [3] was 90.4%. It also gave a viability, T/C [4] of 92.2%, a viability, T/C [5] of 88.5% and a viability, T/C [6] of 79.7%. For the same compound, the viability, T/C [7] was 86.9%, the viability, T/C [8] was 88% and the viability, T/C [9] was 77.6%. For the same compound, the viability, T/C [10] was 76.2%, the viability, T/C [11] was 80.6% and the viability, T/C [12] was 79.5%. For the same compound, the viability, T/C [13] was 73.5%, the viability, T/C [14] was 73.1% and the viability, T/C [15] was 75.8%. The viability, T/C [16] was 69.7%, the viability, T/C [17] was 77.7% and the viability, T/C [18] was 69%. For the same compound, the viability, T/C [19] was 67.5%, the viability, T/C [20] was 66.5% and the viability, T/C [21] was 71.1%. It also gave a viability, T/C [22] of 66.4%, a viability, T/C [23] of 74.2% and a viability, T/C [24] of 70.3%. For the same compound, the viability, T/C [25] was 65.3%, the viability, T/C [26] was 60.9% and the viability, T/C [27] was 63.1%. It also gave a viability, T/C [28] of 55.9%, a viability, T/C [29] of 68.8% and a viability, T/C [30] of 67.8%. The viability, T/C [31] was 60.9%, the viability, T/C [32] was 66.7% and the viability, T/C [33] was 61.3%. The viability, T/C [34] was 66.2%, the viability, T/C [35] was 67.6% and the viability, T/C [36] was 66.8%.
For `CC1COCCN1c1cc(C2(O)CC3CCC(C2)O3)c2cnn(-c3ccn[nH]3)c2n1` (stereo unspecified) + CN(C)c1ccc(Nc2c3ccc(NC(=O)CCN4CCCC4)cc3nc3cc(NC(=O)CCN4CCCC4)ccc23)cc1, the pIC50 (second compound 0.0316 µM) was > 7.50, the pIC50 (second compound 0.1 µM) was > 7.50 and the pIC50 (second compound 0.316 µM) was > 7.50. The pIC50 (second compound 1 µM) was > 7.50, the pIC50 (second compound 3.16 µM) was > 7.50 and the pIC50 (second compound 10 µM) was > 7.50. For the same compound, the viability, T/C [1] was 48%, the viability, T/C [2] was 16.6% and the viability, T/C [3] was 5.6%. The viability, T/C [4] was 1.83%, the viability, T/C [5] was 1.12% and the viability, T/C [6] was 0.76%. It also gave a viability, T/C [7] of 47.5%, a viability, T/C [8] of 15.7% and a viability, T/C [9] of 5.27%. It also gave a viability, T/C [10] of 1.88%, a viability, T/C [11] of 1.2% and a viability, T/C [12] of 1.32%. The viability, T/C [13] was 41.9%, the viability, T/C [14] was 13.6% and the viability, T/C [15] was 4.24%. For the same compound, the viability, T/C [16] was 1.41%, the viability, T/C [17] was 1.02% and the viability, T/C [18] was 0.73%. For the same compound, the viability, T/C [19] was 12.1%, the viability, T/C [20] was 4.72% and the viability, T/C [21] was 2.23%. For the same compound, the viability, T/C [22] was 0.4%, the viability, T/C [23] was 0.33% and the viability, T/C [24] was 0.3%. It also gave a viability, T/C [25] of 1.34%, a viability, T/C [26] of 0.9% and a viability, T/C [27] of 0.41%. For the same compound, the viability, T/C [28] was 0.14%, the viability, T/C [29] was 0.16% and the viability, T/C [30] was 0.2%. The viability, T/C [31] was 0.14%, the viability, T/C [32] was 0.25% and the viability, T/C [33] was 0.42%. It also gave a viability, T/C [34] of 0.25%, a viability, T/C [35] of 0.16% and a viability, T/C [36] of 0.14%.
`COc1ncnc(C2CC2)c1-c1ncc2cnn(Cc3ccc(-c4nc(C(F)(F)F)cn4C(C)C)cc3)c2n1` + CN(C)c1ccc(Nc2c3ccc(NC(=O)CCN4CCCC4)cc3nc3cc(NC(=O)CCN4CCCC4)ccc23)cc1 was tested, and the pIC50 (second compound 0.0316 µM) was < 5.00, the pIC50 (second compound 0.1 µM) was < 5.00 and the pIC50 (second compound 0.316 µM) was > 7.50. For the same compound, the pIC50 (second compound 1 µM) was > 7.50, the pIC50 (second compound 3.16 µM) was > 7.50 and the pIC50 (second compound 10 µM) was > 7.50. It also gave a viability, T/C [1] of 86.7%, a viability, T/C [2] of 100% and a viability, T/C [3] of 101%. For the same compound, the viability, T/C [4] was 104%, the viability, T/C [5] was 92.8% and the viability, T/C [6] was 86.3%. For the same compound, the viability, T/C [7] was 97%, the viability, T/C [8] was 93.3% and the viability, T/C [9] was 90.3%. It also gave a viability, T/C [10] of 88.9%, a viability, T/C [11] of 80.3% and a viability, T/C [12] of 67.1%. It also gave a viability, T/C [13] of 39.9%, a viability, T/C [14] of 37% and a viability, T/C [15] of 35.6%. The viability, T/C [16] was 28.8%, the viability, T/C [17] was 24.3% and the viability, T/C [18] was 11.6%. For the same compound, the viability, T/C [19] was 3.06%, the viability, T/C [20] was 1.98% and the viability, T/C [21] was 2.28%. The viability, T/C [22] was 1.99%, the viability, T/C [23] was 1.79% and the viability, T/C [24] was 1.02%. For the same compound, the viability, T/C [25] was 0.27%, the viability, T/C [26] was 0.25% and the viability, T/C [27] was 0.36%. It also gave a viability, T/C [28] of 0.22%, a viability, T/C [29] of 0.34% and a viability, T/C [30] of 0.18%. The viability, T/C [31] was 0.13%, the viability, T/C [32] was 0.32% and the viability, T/C [33] was 0.16%. The viability, T/C [34] was 0.41%, the viability, T/C [35] was 0.41% and the viability, T/C [36] was 0.19%.
